Biological target: T1, human CCR6 (Homo sapiens, UniProt P51684)
T1 construct: expressed in transfected cells; host or cells: HEK-293
T1 sequence (P51684 1-374): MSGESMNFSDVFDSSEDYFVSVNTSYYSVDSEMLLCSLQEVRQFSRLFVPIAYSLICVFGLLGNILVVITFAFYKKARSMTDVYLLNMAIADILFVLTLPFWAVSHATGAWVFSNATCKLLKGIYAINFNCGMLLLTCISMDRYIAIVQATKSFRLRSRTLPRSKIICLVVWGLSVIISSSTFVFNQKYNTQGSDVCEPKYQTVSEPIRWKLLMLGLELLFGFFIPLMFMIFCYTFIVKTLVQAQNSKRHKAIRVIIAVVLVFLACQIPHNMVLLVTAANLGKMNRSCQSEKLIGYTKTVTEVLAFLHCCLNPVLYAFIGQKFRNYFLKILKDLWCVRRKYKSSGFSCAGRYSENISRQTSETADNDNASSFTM
Assay: FLIPR assay (inhibition of CCL20-induced calcium signal)
Format: cell-based
Details: HEK-293 cells expressing human CCR6; mean values where determined several times; read-out: FLIPR IC50
Summary of the method: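 Dye-loaded HEK-293 cells expressing human CCR6 were preincubated with compound for 30 min at room temperature in the dark, then challenged with 10 nM CCL20 (final). Fluorescence was tracked on FLIPR, and baseline-subtracted peak emission over base after agonist addition gave inhibition dose-response curves for IC50.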

SMILES | IC50 [nM]
COCC(=O)NC1(Cc2nc(-c3cncc([C@@](O)(c4ccc(C(C)C)cc4)C4(C)CN(C)C4)c3)no2)CC1 [Example 462] | 286
CC(=O)N(C)C1(Cc2nc(-c3cncc([C@@](O)(c4ccc(C(C)C)cc4)C4(C)CN(C)C4)c3)no2)CC1 [Example 463, N-[1-(3-{5-[(R)-(1,3-Dimethyl-azetidin-3-yl)-hydroxy-(4-isopropyl-phenyl)-methyl]-pyridin-3-yl}-[1,2,4]oxadiazol-5-ylmethyl)-cyclopropyl]-N-methyl-acetamide] | 122
CCC(=O)NC(C)(C)Cc1nc(-c2cncc([C@@](O)(c3ccc(C(C)C)cc3)C3(C)CN(C)C3)c2)no1 [Example 464, N-[2-(3-{5-[(R)-(1,3-Dimethyl-azetidin-3-yl)-hydroxy-(4-isopropyl-phenyl)-methyl]-pyridin-3-yl}-[1,2,4]oxadiazol-5-yl)-1,1-dimethyl-ethyl]-propionamide] | 129
COCC(=O)NC(C)(C)Cc1nc(-c2cncc([C@@](O)(c3ccc(C(C)C)cc3)C3(C)CN(C)C3)c2)no1 [Example 465] | 87.5
CC(C)c1ccc([C@](O)(c2cncc(-c3noc(CC(C)(C)NC(=O)C4CCOCC4)n3)c2)C2(C)CN(C)C2)cc1 [Example 466] | 143
CC(C)C(=O)NC(C)(C)Cc1nc(-c2cncc([C@@](O)(c3ccc(C(C)C)cc3)C3(C)CN(C)C3)c2)no1 [Example 467] | 129
CC(C)c1ccc([C@](O)(c2cncc(-c3noc(CC(C)(C)NC(=O)C4CC4)n3)c2)C2(C)CN(C)C2)cc1 [Example 468] | 62.3
CC(=O)N1CC[C@H](c2nc(-c3cncc([C@@](O)(c4ccc(C(C)C)cc4)C4(C)CN(C)C4)c3)no2)C[C@@H]1C [Example 469] | 137
CC(C)C(=O)N1CCC(O)(c2nc(-c3cncc([C@@](O)(c4ccc(C(C)C)cc4)C4(C)CN(C)C4)c3)no2)CC1 [Example 470] | 131
CCC(=O)N1CCC(O)(c2nc(-c3cncc([C@@](O)(c4ccc(C(C)C)cc4)C4(C)CN(C)C4)c3)no2)CC1 [Example 471] | 125
COC1(c2nc(-c3cncc([C@@](O)(c4ccc(C(C)C)cc4)C4(C)CN(C)C4)c3)no2)CCN(C(C)=O)CC1 [Example 472] | 79.8
CC(C)c1ccc([C@](O)(c2cncc(-c3noc(C4CCN(C(=O)CC(F)(F)F)CC4)n3)c2)C2(C)CN(C)C2)cc1 [Example 473, 1-[4-(3-{5-[(R)-(1,3-Dimethyl-azetidin-3-yl)-hydroxy-(4-isopropyl-phenyl)-methyl]-pyridin-3-yl}-[1,2,4]oxadiazol-5-yl)-piperidin-1-yl]-3,3,3-trifluoro-propan-1-one] | 77.6
CC(C)c1ccc([C@](O)(c2cncc(-c3noc(C4CCN(C(=O)CC5COC5)CC4)n3)c2)C2(C)CN(C)C2)cc1 [Example 474, 1-[4-(3-{5-[(R)-(1,3-Dimethyl-azetidin-3-yl)-hydroxy-(4-isopropyl-phenyl)-methyl]-pyridin-3-yl}-[1,2,4]oxadiazol-5-yl)-piperidin-1-yl]-2-oxetan-3-yl-ethanone] | 121
CCC1(c2nc(-c3cncc([C@@](O)(c4ccc(C(C)C)cc4)C4(C)CN(C)C4)c3)no2)CCN(C(C)=O)CC1 [Example 475] | 54.7
CC(C)c1ccc([C@](O)(c2cncc(-c3noc(C4CCN(C(=O)C5COC5)CC4)n3)c2)C2(C)CN(C)C2)cc1 [Example 476] | 112
COCC(=O)N1CCC(c2nc(-c3cncc([C@@](O)(c4ccc(C(C)C)cc4)C4(C)CN(C)C4)c3)no2)(C(C)C)CC1 [Example 477] | 33.9
CC(C)c1ccc([C@](O)(c2cncc(-c3noc(C4CCC(=O)N(C)C4)n3)c2)C2(C)CN(C)C2)cc1 (stereo partly drawn) [Example 479, 5-(3-{5-[(R)-(1,3-Dimethyl-azetidin-3-yl)-hydroxy-(4-isopropyl-phenyl)-methyl]-pyridin-3-yl}-[1,2,4]oxadiazol-5-yl)-1-methyl-piperidin-2-one] | 112
CC(C)c1ccc([C@](O)(c2cncc(-c3noc(C4(C)CCC(=O)NC4)n3)c2)C2(C)CN(C)C2)cc1 (stereo partly shown) [Example 480] | 128
CC(C)c1ccc([C@](O)(c2cncc(-c3noc(C4CCC(=O)NC4)n3)c2)C2(C)CN(C)C2)cc1 (stereo partly shown) [Example 481] | 184

SMILES | IC50 [nM]
CC(C)c1ccc([C@](O)(c2cncc(-c3noc(C4(C)CNC(=O)C4)n3)c2)C2(C)CN(C)C2)cc1 (stereo partly shown) [Example 482] | 92.3
CC(C)c1ccc([C@](O)(c2cncc(-c3noc(CN4C(=O)CC(C)(C)C4=O)n3)c2)C2(C)CN(C)C2)cc1 [Example 483] | 73.1
CC(C)c1ccc([C@](O)(c2cncc(-c3noc(CN4CC(=O)NC4=O)n3)c2)C2(C)CN(C)C2)cc1 [Example 484] | 593
CC(C)c1ccc([C@](O)(c2cncc(-c3noc(CN4CCCC4=O)n3)c2)C2(C)CN(C)C2)cc1 [Example 485] | 259
CC(C)c1ccc([C@](O)(c2cncc(-c3noc(CN4C(=O)CNC4=O)n3)c2)C2(C)CN(C)C2)cc1 [Example 486] | 287
CC(C)c1ccc([C@](O)(c2cncc(-c3noc(CN4C(=O)CN(C)C4=O)n3)c2)C2(C)CN(C)C2)cc1 [Example 487] | 248
CC(C)c1ccc([C@](O)(c2cncc(-c3noc(CN4CC(=O)N(C)C4=O)n3)c2)C2(C)CN(C)C2)cc1 [Example 488] | 382
CC(C)c1ccc([C@](O)(c2cncc(-c3noc(CN4CCOC4=O)n3)c2)C2(C)CN(C)C2)cc1 [Example 489] | 135
CC(C)c1ccc([C@](O)(c2cncc(-c3noc(CN4CCN(C5CC5)C4=O)n3)c2)C2(C)CN(C)C2)cc1 [Example 490] | 143
CC(C)c1ccc([C@](O)(c2cncc(-c3noc(CN4C(=O)CCC4=O)n3)c2)C2(C)CN(C)C2)cc1 [Example 491] | 172
CC(C)c1ccc([C@](O)(c2cncc(-c3noc(CN4CCN(C)C4=O)n3)c2)C2(C)CN(C)C2)cc1 [Example 492] | 267
CC(C)c1ccc([C@](O)(c2cncc(-c3noc(CN4CCNC4=O)n3)c2)C2(C)CN(C)C2)cc1 [Example 493] | 185
CC(C)c1ccc([C@](O)(c2cncc(-c3noc(C(C)(O)CO)n3)c2)C2(C)CN(C)C2)cc1 (stereo partly shown) [Example 494] | 240
CC(C)c1ccc([C@](O)(c2cncc(-c3noc(-c4cccnc4)n3)c2)C2(C)CN(C)C2)cc1 [Example 495] | 20.9
CC(=O)N1CCC(Cc2nc(-c3cncc([C@@](O)(c4ccc(C(C)C)cc4)C4(C)CN(C)C4)c3)no2)CC1 [Example 496] | 69.7
CC(C)c1ccc([C@](O)(c2cncc(-c3noc(CC#N)n3)c2)C2(C)CN(C)C2)cc1 [Example 497] | 74.3
CC(=O)N1CCC(O)(c2nc(-c3cncc([C@@](O)(c4ccc(C(C)C)cc4)C4(C)CN(C)C4)c3)no2)CC1 [Example 498, 1-[4-(3-{5-[(R)-(1,3-Dimethyl-azetidin-3-yl)-hydroxy-(4-isopropyl-phenyl)-methyl]-pyridin-3-yl}-[1,2,4]oxadiazol-5-yl)-4-hydroxy-piperidin-1-yl]-ethanone] | 234
CC(C)c1ccc([C@](O)(c2cncc(-c3noc(CCC#N)n3)c2)C2(C)CN(C)C2)cc1 [Example 499, 3-(3-{5-[(R)-(1,3-Dimethyl-azetidin-3-yl)-hydroxy-(4-isopropyl-phenyl)-methyl]-pyridin-3-yl}-[1,2,4]oxadiazol-5-yl)-propionitrile] | 53.8

From US12617773B2, “Azetidin-3-ylmethanol derivatives as CCR6 receptor modulators” (Idorsia Pharmaceuticals Ltd, priority 2020, dated 2026)
